Measurements taken from ChEMBL document CHEMBL1149425, “A novel class of sodium/calcium exchanger inhibitors: design, synthesis, and structure-activity relationships of 4-phenyl-3-(piperidin-4-yl)-3,4-dihydro-2(1H)-quinazolinone derivatives” (Bioorg Med Chem Lett, 2006).
Peptide text beside a SMILES is read from it.

Target: Sodium/calcium exchanger 1 (Cavia porcellus) (UniProt P48766)
Assay: Inhibitory activity against Sodium/Calcium exchanger in isolated guinea pig left atria

Sodium/calcium exchanger 1 (Cavia porcellus), sequence (P48766 whole entry, looked up): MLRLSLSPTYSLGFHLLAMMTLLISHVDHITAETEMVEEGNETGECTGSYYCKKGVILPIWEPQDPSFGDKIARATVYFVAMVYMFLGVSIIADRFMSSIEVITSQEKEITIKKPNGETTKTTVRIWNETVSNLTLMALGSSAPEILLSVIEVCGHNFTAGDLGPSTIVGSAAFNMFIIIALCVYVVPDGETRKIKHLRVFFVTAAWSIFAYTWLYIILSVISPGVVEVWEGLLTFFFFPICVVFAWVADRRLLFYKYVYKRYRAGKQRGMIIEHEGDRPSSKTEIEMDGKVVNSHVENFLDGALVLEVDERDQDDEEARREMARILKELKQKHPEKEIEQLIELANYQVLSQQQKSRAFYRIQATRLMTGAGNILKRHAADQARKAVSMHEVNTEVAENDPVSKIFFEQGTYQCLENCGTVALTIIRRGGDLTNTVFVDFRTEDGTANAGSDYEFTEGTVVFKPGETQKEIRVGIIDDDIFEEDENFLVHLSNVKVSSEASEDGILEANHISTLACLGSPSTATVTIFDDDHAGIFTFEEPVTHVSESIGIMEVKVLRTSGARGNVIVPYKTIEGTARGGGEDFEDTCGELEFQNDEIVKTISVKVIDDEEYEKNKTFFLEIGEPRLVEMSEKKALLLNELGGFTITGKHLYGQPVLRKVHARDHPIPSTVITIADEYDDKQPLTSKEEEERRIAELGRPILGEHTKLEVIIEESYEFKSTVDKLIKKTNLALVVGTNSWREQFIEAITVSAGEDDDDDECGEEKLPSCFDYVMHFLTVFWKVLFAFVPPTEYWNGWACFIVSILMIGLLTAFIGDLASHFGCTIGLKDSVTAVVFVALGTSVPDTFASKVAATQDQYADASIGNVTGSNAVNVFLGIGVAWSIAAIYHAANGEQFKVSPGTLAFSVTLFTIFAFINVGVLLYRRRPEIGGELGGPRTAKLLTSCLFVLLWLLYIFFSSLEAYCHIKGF

SMILES | IC30 [nM]
O=C1Nc2ccccc2C(c2ccccc2)N1C1CCN(Cc2ccoc2)CC1 (stereo not given) | 17
COc1cc(CN2CCC(N3C(=O)Nc4ccccc4C3c3ccccc3)CC2)cc(OC)c1OC (stereo not given) | > 10000
O=C1Nc2ccccc2C(c2ccccc2)N1C1CCN(Cc2ccccc2Cl)CC1 (stereo not given) | 9000
O=C1Nc2ccccc2C(c2ccccc2)N1C1CCN(Cc2ccsc2)CC1 (stereo not given) | 3900
O=C1Nc2ccccc2C(c2ccccc2)N1C1CCN(Cc2ccco2)CC1 (stereo not given) | 8300
CSCC[C@H](NC(=O)[C@@H](N)C(C)C)C(=O)N[C@@H](CCCN=C(N)N)C(=O)N[C@@H](Cc1ccccc1)C(N)=O (H-VMRF-NH2) | 10000
O=C1Nc2ccccc2C(c2ccccc2)N1C1CCN(Cc2cccs2)CC1 (stereo not given) | 1700
COc1cc(CN2CCC(N3C(=O)Nc4ccccc4C3c3ccccc3)CC2)cc(OC)c1 (stereo not given) | > 10000
O=C1Nc2ccccc2C(c2ccccc2)N1C1CCN(Cc2ccccn2)CC1 (stereo not given) | 390

Other lines, results leading:

IC30 [nM] | SMILES
620 | O=C1Nc2ccccc2C(c2ccccc2)N1C1CCN(Cc2ccc(Cl)cc2)CC1 (stereo not given)
480 | O=C1Nc2ccccc2C(c2ccccc2)N1C1CCN(Cc2ccncc2)CC1 (stereo not given)
17 | O=C1Nc2ccccc2C(c2ccccc2)N1C1CCN(Cc2ccccc2)CC1 (stereo not given)
160 | O=C1Nc2ccccc2C(c2ccccc2)N1C1CCN(Cc2cccnc2)CC1 (stereo not given)
8.4 | COc1cccc(CN2CCC(N3C(=O)Nc4ccccc4C3c3ccccc3)CC2)c1 (stereo not given)
250 | COc1ccc(CN2CCC(N3C(=O)Nc4ccccc4C3c3ccccc3)CC2)cc1 (stereo not given)
540 | O=C1Nc2ccccc2C(c2ccccc2)N1C1CCN(Cc2cccc(Cl)c2)CC1 (stereo not given)
490 | COCc1cccc(CN2CCC(N3C(=O)Nc4ccccc4C3c3ccccc3)CC2)c1 (stereo not given)
580 | CCOc1cccc(CN2CCC(N3C(=O)Nc4ccccc4C3c3ccccc3)CC2)c1 (stereo not given)
> 10000 | COc1ccccc1CN1CCC(N2C(=O)Nc3ccccc3C2c2ccccc2)CC1 (stereo not given)
560 | Cc1cccc(CN2CCC(N3C(=O)Nc4ccccc4C3c3ccccc3)CC2)c1 (stereo not given)
